In data set [1] the test system is cancer cells. The data set is described as follows: Cancer cell proliferation. The format is cell-based. The note with it: in words.
The test system of data set [2] is T1, T-type Ca^2+ channel.
T1 construct: other: cell membrane potential about −90 mV, in words; other: in words; selectivity for the −90 mV state relative to −40 mV; other: cell membrane potential about −30 mV to −60 mV
The data set is described as follows: Inhibition of T-type Ca^2+ channel activity in a cell with the membrane potential held (patch-clamp). The format is cell-based. As to conditions: in words; for inhibition of T-type Ca^2+ channel activity: cell membrane potential about −90 mV. From the text:
This disclosure further provides methods of identifying compounds that inhibit T-type Ca^2+ channel activity in a cell when the cell membrane potential is about −90 mV. These methods include determining the ability of a compound to inhibit T-type Ca^2+ channel activity in a cell when the cell membrane potential is held at about −90 mV. The membrane potential can be held at about −90 mV by techniques known in the art, such as the patch-clamp technique. The ability of a compound to inhibit T-type Ca^2+ channel activity in a cell when the cell membrane potential is about −90 mV can be determined, for example, by determining the ability of the compound to prevent growth factor-stimulated calcium entry into the cell. Calcium entry into the cell can be determined by measuring increases in levels of intracellular calcium, such as by use of a calcium sensitive fluorescent dye.
This disclosure further provides methods of identifying compounds that inhibit T-type Ca^2+ channel activity in a cell when the cell membrane potential is about −90 mV. Such compounds can be identified by measuring inhibition of T-type Ca^2+ channel activity in a cell using standard electrophysiological methods such as patch clamp or by measuring the ability of a pharmaceutical agent to block calcium entry into a cell, such as a cancer cell, when that cell is stimulated by a mitogen, such as a growth factor. Such methods are disclosed, for example, in Densmore, et al., FEBS Lett. 312:161-164 (1992); Haverstick, et al., Mol. Biol. Cell 4:173-184 (1993); and Gomora et al., J. Pharmacol. Exp. Ther. 292:96-103 (2000), the contents of which are incorporated by reference. Calcium entry can be determined by methods such as intracellular entrapment of a Ca^2+ sensitive fluorescent dye.
In some embodiments, the cell membrane potential can be controlled using a patch-clamp technique. In some embodiments cell membrane potential can be controlled using any other technique described herein or known in the art.

Data set [3] has as its system T1, T-type Ca^2+ channel. As to conditions: cited from earlier work; for potency for inhibition of the T-type calcium channel: in words; for IC50: read-out: IC50 for inhibiting T-type Ca^2+ channel activity.
For data set [4] the following is noted: used by almost a million patients; cited from earlier work.
Data set [5] has as its system human glioblastoma. The note with it: seven day course of mibefradil, then five day course of temozolomide; cited from earlier work.
The target of data set [6] is CYP 450 3A4 (Homo sapiens, UniProt P08684). As to conditions: in words; cited from earlier work.
The test system of data set [7] is T-type Ca^2+ channel. As to conditions: ratio; cited from earlier work.

“Also recorded” adds a separate entry of the source. Like-named read-outs stand apart in the source and are kept apart here. Where only a bound is given, the exact number is not on record here.

Sequence of CYP 450 3A4 (P08684 whole entry): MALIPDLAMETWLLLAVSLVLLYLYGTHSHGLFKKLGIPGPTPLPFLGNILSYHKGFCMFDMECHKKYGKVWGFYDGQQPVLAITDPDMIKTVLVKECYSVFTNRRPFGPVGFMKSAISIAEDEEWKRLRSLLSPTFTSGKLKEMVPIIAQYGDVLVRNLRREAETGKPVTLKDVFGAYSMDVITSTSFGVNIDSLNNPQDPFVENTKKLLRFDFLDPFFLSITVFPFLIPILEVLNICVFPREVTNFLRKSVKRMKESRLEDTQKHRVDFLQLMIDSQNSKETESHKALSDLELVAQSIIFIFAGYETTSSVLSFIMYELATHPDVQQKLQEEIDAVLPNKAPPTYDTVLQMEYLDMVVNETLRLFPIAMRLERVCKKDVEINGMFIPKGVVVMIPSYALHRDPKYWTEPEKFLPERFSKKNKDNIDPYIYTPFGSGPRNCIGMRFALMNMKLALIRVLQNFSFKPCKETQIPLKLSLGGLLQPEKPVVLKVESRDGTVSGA

With `CC(C)c1ccc(CC(=O)N[C@H](C)c2ccc(OCC(F)(F)F)cn2)cc1` [MK-8998], in data set [1], the anti-proliferative activity result is listed as “without anti-proliferative activity; also recorded: little or no effect”. Also, the “selectivity for the −90 mV state relative to −40 mV” value in data set [2] is listed as “decreased selectivity”. The “potency for inhibition of the T-type calcium channel” value in data set [3] was “high potency”.

With `COc1ccc(CCN2CCC[C@H]2COC(c2ccccc2)c2ccc(Cl)cc2)cc1` (stereo partly drawn) [TH-1177], the “inhibition of T-type Ca^2+ channel activity” value in data set [2] was “inhibit”.

Turning to `C[C@@H](NC(=O)Cc1ccc(C2CC2)cc1)c1ccc(OCC(F)(F)F)cn1` [TTA-A2], in data set [1], the anti-proliferative activity entry is “without anti-proliferative activity; also recorded: little or no effect”. For the same molecule, the “selectivity for the −90 mV state relative to −40 mV” value in data set [2] was “decreased selectivity”. Further, the “potency for inhibition of the T-type calcium channel” value in data set [3] is recorded as “high potency”.

On to `O=c1[nH]c2cc(Cl)ccc2n1C1CCN(CCCC(c2ccc(F)cc2)c2ccc(F)cc2)CC1` [chlopimozide], for which the anti-proliferative activity entry in data set [1] was “anti-proliferative”.

Consider `COCC(=O)O[C@]1(CCN(C)CCCc2nc3ccccc3[nH]2)CCc2cc(F)ccc2[C@@H]1C(C)C` [mibefradil], for which, in data set [4], the tolerability result is “remarkably well tolerated”. Besides, the anti-proliferative activity result in data set [1] is recorded as “inhibit cancer cell proliferation”; in data set [1] (listed as Mibefradil), “antiproliferative”. Besides, the “effect on the cytotoxic effect of temozolomide” value in data set [5] was “significantly increased; also recorded: restored the sensitivity to temozolomide”. In addition, the “inhibition of T-type Ca^2+ channel activity” value in data set [2] was “inhibit”. Moreover, the “selectivity for the −90 mV state relative to −40 mV” value in data set [2] is “preferentially blocks the −90 mV state”. Further, in data set [6], the “inhibition of CYP 450 3A4” value is listed as “inhibition”. For the same molecule, in data set [7], the “preference for blocking channels at about −30 mV to −60 mV over −90 mV” value is 10 to 1. For the same molecule, the figures for the concentration for half-maximal inhibition (IC50) in data set [3] (cell membrane potential about −30 mV to −60 mV) and in data set [3] (cell membrane potential of −80 mV to −90 mV) were no less than 100 nM and roughly 1000 nM, respectively.

Values taken from patent US20150355163A1, “T-TYPE CALCIUM CHANNEL INHIBITORS FOR TREATMENT OF CANCER” (TAU THERAPEUTICS LLC, priority 2013, published 2015).
